Measurements as given in the supplement of paper PMC10307832.

What was measured:
Experiment in all cases: relative viability (nuclei count vs DMSO), 5 days (fraction); higher = more cells survive
Gemcitabine + Tozasertib = compound: Nc1ccn([C@@H]2O[C@H](CO)[C@@H](O)C2(F)F)c(=O)n1 [Gemcitabine] + Cc1cc(Nc2cc(N3CCN(C)CC3)nc(Sc3ccc(NC(=O)C4CC4)cc3)n2)n[nH]1 [Tozasertib] (partner 0.1 µM)
In short: (§1)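 A single step with final 0.05% Triton X-100, 1% formaldehyde and 1 ug/ml Hoechst fixed the cells and stained nuclei 5 days after treatment. Lung cancer cell lines in 1536-well plates had been treated by pin tool the day after seeding with one drug alone or a fixed anchor-drug dose plus five library-drug doses (not always all listed) in √10 steps, and nuclei were counted on 4× images. Relative viability is the ratio of nuclei in treated wells to nuclei in vehicle wells, taken as the median of duplicate plates.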

Gemcitabine + Foretinib = compound: Nc1ccn([C@@H]2O[C@H](CO)[C@@H](O)C2(F)F)c(=O)n1 [Gemcitabine] + COc1cc2c(Oc3ccc(NC(=O)C4(C(=O)Nc5ccc(F)cc5)CC4)cc3F)ccnc2cc1OCCCN1CCOCC1 [Foretinib] (partner 0.25 µM)
In short: as §1

Gemcitabine + Luminespib = compound: Nc1ccn([C@@H]2O[C@H](CO)[C@@H](O)C2(F)F)c(=O)n1 [Gemcitabine] + CCNC(=O)c1noc(-c2cc(C(C)C)c(O)cc2O)c1-c1ccc(CN2CCOCC2)cc1 [Luminespib] (partner 0.01 µM)
In short: as §1

Gemcitabine + AZD7762 = compound: Nc1ccn([C@@H]2O[C@H](CO)[C@@H](O)C2(F)F)c(=O)n1 [Gemcitabine] + NC(=O)Nc1cc(-c2cccc(F)c2)sc1C(=O)N[C@H]1CCCNC1 [AZD7762] (partner 0.2 µM)
In short: as §1

Row | Cell Line | relative viability (Gemcitabine + Tozasertib; first compound 0.001 µM) | relative viability (Gemcitabine + Tozasertib; first compound 0.003162 µM) | relative viability (Gemcitabine + Tozasertib; first compound 0.01 µM) | relative viability (Gemcitabine + Tozasertib; first compound 0.03162 µM) | relative viability (Gemcitabine + Tozasertib; first compound 0.1 µM) | relative viability (Gemcitabine + Foretinib; first compound 0.001 µM) | relative viability (Gemcitabine + Foretinib; first compound 0.003162 µM) | relative viability (Gemcitabine + Foretinib; first compound 0.01 µM) | relative viability (Gemcitabine + Foretinib; first compound 0.03162 µM) | relative viability (Gemcitabine + Foretinib; first compound 0.1 µM) | relative viability (Gemcitabine + Luminespib; first compound 0.001 µM) | relative viability (Gemcitabine + Luminespib; first compound 0.003162 µM) | relative viability (Gemcitabine + Luminespib; first compound 0.01 µM) | relative viability (Gemcitabine + Luminespib; first compound 0.03162 µM) | relative viability (Gemcitabine + Luminespib; first compound 0.1 µM) | relative viability (Gemcitabine + AZD7762; first compound 0.001 µM) | relative viability (Gemcitabine + AZD7762; first compound 0.003162 µM) | relative viability (Gemcitabine + AZD7762; first compound 0.01 µM) | relative viability (Gemcitabine + AZD7762; first compound 0.03162 µM) | relative viability (Gemcitabine + AZD7762; first compound 0.1 µM)
1 | NCI-H2170 | 0.824 | 0.735 | 0.469 | 0.154 | 0.134 | 1.02 | 1.03 | 0.909 | 0.3 | 0.518 | 0.564 | 0.633 | 0.575 | 0.169 | 0.151 | 0.889 | 0.771 | 0.128 | 0.106 | 0.108
2 | NCI-H2342 | 0.456 | 0.451 | 0.427 | 0.279 | 0.268 | 1.08 | 1 | 0.712 | 0.389 | 0.258 | 0.591 | 0.61 | 0.543 | 0.376 | 0.331 | 0.473 | 0.382 | 0.333 | 0.235 | 0.374
3 | NCI-H2347 | 0.563 | 0.547 | 0.484 | 0.29 | 0.259 | 0.817 | 0.731 | 0.826 | 0.492 | 0.35 | 0.412 | 0.513 | 0.302 | 0.448 | 0.282 | 0.494 | 0.468 | 0.205 | 0.217 | 0.233
4 | NCI-H2405 | 0.812 | 0.709 | 0.495 | 0.221 | 0.216 | 0.996 | 1 | 0.676 | 0.254 | 0.229 | 0.73 | 0.746 | 0.587 | 0.207 | 0.216 | 0.518 | 0.23 | 0.193 | 0.193 | 0.195
5 | NCI-H3122 | 0.428 | 0.365 | 0.222 | 0.106 | 0.0862 | 0.94 | 0.959 | 0.89 | 0.123 | 0.0966 | 0.1 | 0.0845 | 0.0643 | 0.0629 | 0.0705 | 1.02 | 0.783 | 0.126 | 0.0803 | 0.097
6 | PC-3 [JPC-3] | 0.902 | 0.796 | 0.666 | 0.264 | 0.237 | 1.15 | 0.847 | 0.605 | 0.28 | 0.228 | 0.79 | 0.685 | 0.415 | 0.349 | 0.314 | 0.761 | 0.482 | 0.336 | 0.35 | 0.299
7 | PC-14 | 0.579 | 0.275 | 0.078 | 0.0297 | 0.0356 | 0.953 | 0.649 | 0.293 | 0.0827 | 0.0507 | 0.155 | 0.135 | 0.132 | 0.08 | 0.109 | 0.269 | 0.0798 | 0.0434 | 0.0466 | 0.0618
8 | RERF-LC-KJ | 0.596 | 0.543 | 0.578 | 0.323 | 0.229 | 0.942 | 0.89 | 0.958 | 0.799 | 0.326 | 1.17 | 1.45 | 1.13 | 0.458 | 0.319 | 1.14 | 1 | 0.951 | 0.233 | 0.181
9 | SW 900 | 0.462 | 0.241 | 0.127 | 0.0969 | 0.109 | 0.697 | 0.511 | 0.117 | 0.0938 | 0.0882 | 0.147 | 0.187 | 0.164 | 0.161 | 0.148 | 0.423 | 0.214 | 0.109 | 0.147 | 0.112
